Data taken from PubChem BioAssay (NCI).
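In this assay, cells in 96-well plates receive the compound at five concentrations for 48 hours. Endpoints are linearly interpolated between the surrounding concentrations. At the TGI there is no net growth.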

Key:
Experiment in all cases: growth of human tumour cells (NCI), 48 h
NCI/ADR-RES ovarian = test system: NCI/ADR-RES ovarian
T-47D breast = test system: T-47D breast
A498 renal = test system: A498 renal
OVCAR-8 ovarian = test system: OVCAR-8 ovarian
MCF7 breast = test system: MCF7 breast
A549 NSCLC = test system: A549 NSCLC
SNB-19 CNS = test system: SNB-19 CNS
NCI-H23 lung = test system: NCI-H23 lung
PC-3 prostate = test system: PC-3 prostate
UACC-257 melanoma = test system: UACC-257 melanoma
OVCAR-5 ovarian = test system: OVCAR-5 ovarian
HOP-92 NSCLC = test system: HOP-92 NSCLC
OVCAR-4 ovarian = test system: OVCAR-4 ovarian
SF-539 CNS = test system: SF-539 CNS
SK-MEL-2 melanoma = test system: SK-MEL-2 melanoma
UACC-62 melanoma = test system: UACC-62 melanoma
SNB-75 CNS = test system: SNB-75 CNS
HT29 colon = test system: HT29 colon
SK-OV-3 ovarian = test system: SK-OV-3 ovarian
UO-31 renal = test system: UO-31 renal
COLO 205 colon = test system: COLO 205 colon
BT-549 breast = test system: BT-549 breast
MDA-MB-435 = test system: MDA-MB-435
NCI-H522 lung = test system: NCI-H522 lung
CAKI-1 renal = test system: CAKI-1 renal
HCT-15 colon = test system: HCT-15 colon
K-562 leukemia = test system: K-562 leukemia
HL-60(TB) leukemia = test system: HL-60(TB) leukemia
NCI-H226 lung = test system: NCI-H226 lung
MDA-MB-231 breast = test system: MDA-MB-231 breast
HCT-116 colon = test system: HCT-116 colon
SW-620 colon = test system: SW-620 colon
SK-MEL-28 melanoma = test system: SK-MEL-28 melanoma
SK-MEL-5 melanoma = test system: SK-MEL-5 melanoma
SF-295 CNS = test system: SF-295 CNS
KM12 colon = test system: KM12 colon
MALME-3M melanoma = test system: MALME-3M melanoma
OVCAR-3 ovarian = test system: OVCAR-3 ovarian
CCRF-CEM leukemia = test system: CCRF-CEM leukemia
U251 CNS = test system: U251 CNS
EKVX NSCLC = test system: EKVX NSCLC
HOP-62 NSCLC = test system: HOP-62 NSCLC
HS 578T breast = test system: HS 578T breast
SF-268 CNS = test system: SF-268 CNS
MOLT-4 leukemia = test system: MOLT-4 leukemia
DU-145 prostate = test system: DU-145 prostate
RXF 393 renal = test system: RXF 393 renal
M14 melanoma = test system: M14 melanoma
786-0 renal = test system: 786-0 renal
LOX IMVI melanoma = test system: LOX IMVI melanoma
IGROV1 ovarian = test system: IGROV1 ovarian
TK-10 renal = test system: TK-10 renal
ACHN renal = test system: ACHN renal
SN12C renal = test system: SN12C renal
MDA-N = test system: MDA-N
NCI-H460 lung = test system: NCI-H460 lung
RPMI-8226 leukemia = test system: RPMI-8226 leukemia
HCC-2998 colon = test system: HCC-2998 colon
SR leukemia = test system: SR leukemia

For `CNc1ncnc(Sc2nc(N)nc3nc[nH]c23)c1[N+](=O)[O-]`, the TGI (NCI/ADR-RES ovarian) was 34.4 µM, the TGI (T-47D breast) was 16.8 µM and the TGI (A498 renal) was over 100 µM. For the same compound, the TGI (OVCAR-8 ovarian) was 18.5 µM, the TGI (MCF7 breast) was over 41.5 µM and the TGI (A549 NSCLC) was over 49.2 µM. It also gave a TGI (SNB-19 CNS) of over 81.2 µM, a TGI (NCI-H23 lung) of 13.9 µM and a TGI (PC-3 prostate) of 22 µM. It also gave a TGI (UACC-257 melanoma) of 13 µM, a TGI (OVCAR-5 ovarian) of over 77.4 µM and a TGI (HOP-92 NSCLC) of 16.4 µM. For the same compound, the TGI (OVCAR-4 ovarian) was 18.7 µM, the TGI (SF-539 CNS) was 28.9 µM and the TGI (SK-MEL-2 melanoma) was 8.9 µM. The TGI (UACC-62 melanoma) was 16.2 µM, the TGI (SNB-75 CNS) was 2.83 µM and the TGI (HT29 colon) was over 49.5 µM. For the same compound, the TGI (SK-OV-3 ovarian) was over 100 µM, the TGI (UO-31 renal) was 13.9 µM and the TGI (COLO 205 colon) was 5.53 µM. It also gave a TGI (BT-549 breast) of 20.1 µM, a TGI (MDA-MB-435) of 12 µM and a TGI (NCI-H522 lung) of 6.76 µM. The TGI (CAKI-1 renal) was 12.9 µM, the TGI (HCT-15 colon) was 14 µM and the TGI (K-562 leukemia) was 5.66 µM. For the same compound, the TGI (HL-60(TB) leukemia) was 6.7 µM, the TGI (NCI-H226 lung) was over 100 µM and the TGI (MDA-MB-231 breast) was 20.6 µM. For the same compound, the TGI (HCT-116 colon) was 11.9 µM, the TGI (SW-620 colon) was 20.6 µM and the TGI (SK-MEL-28 melanoma) was 22.2 µM. The TGI (SK-MEL-5 melanoma) was 13.4 µM, the TGI (SF-295 CNS) was over 100 µM and the TGI (KM12 colon) was 25.3 µM. It also gave a TGI (MALME-3M melanoma) of 18.9 µM, a TGI (OVCAR-3 ovarian) of 12 µM and a TGI (CCRF-CEM leukemia) of 0.892 µM. For the same compound, the TGI (U251 CNS) was 26.9 µM, the TGI (EKVX NSCLC) was 47 µM and the TGI (HOP-62 NSCLC) was over 100 µM. The TGI (HS 578T breast) was over 43.9 µM, the TGI (SF-268 CNS) was over 36.5 µM and the TGI (MOLT-4 leukemia) was 4.77 µM. For the same compound, the TGI (DU-145 prostate) was over 100 µM, the TGI (RXF 393 renal) was 8.06 µM and the TGI (M14 melanoma) was 19.4 µM. It also gave a TGI (786-0 renal) of 16.5 µM, a TGI (LOX IMVI melanoma) of 12.2 µM and a TGI (IGROV1 ovarian) of 22.1 µM. It also gave a TGI (TK-10 renal) of 0.941 µM, a TGI (ACHN renal) of 14.7 µM and a TGI (SN12C renal) of 11.9 µM. The TGI (MDA-N) was 14.9 µM, the TGI (NCI-H460 lung) was 3.28 µM and the TGI (RPMI-8226 leukemia) was 1.79 µM.

Work on `CCN(CC)CCn1c(C(C)(C)C)nc2ccccc21` yielded a TGI (NCI/ADR-RES ovarian) of over 100 µM, a TGI (OVCAR-8 ovarian) of over 100 µM and a TGI (MCF7 breast) of over 100 µM. For the same compound, the TGI (A549 NSCLC) was over 100 µM, the TGI (SNB-19 CNS) was over 100 µM and the TGI (NCI-H23 lung) was over 100 µM. The TGI (PC-3 prostate) was over 100 µM, the TGI (UACC-257 melanoma) was over 100 µM and the TGI (OVCAR-5 ovarian) was over 100 µM. For the same compound, the TGI (HOP-92 NSCLC) was over 100 µM, the TGI (OVCAR-4 ovarian) was over 100 µM and the TGI (SF-539 CNS) was over 100 µM. It also gave a TGI (UACC-62 melanoma) of over 100 µM, a TGI (SNB-75 CNS) of over 100 µM and a TGI (HT29 colon) of over 100 µM. It also gave a TGI (SK-OV-3 ovarian) of over 100 µM, a TGI (UO-31 renal) of over 100 µM and a TGI (COLO 205 colon) of over 100 µM. The TGI (BT-549 breast) was over 100 µM, the TGI (NCI-H522 lung) was over 100 µM and the TGI (CAKI-1 renal) was over 100 µM. It also gave a TGI (HCC-2998 colon) of over 100 µM, a TGI (HCT-15 colon) of over 100 µM and a TGI (K-562 leukemia) of over 100 µM. The TGI (HL-60(TB) leukemia) was over 100 µM, the TGI (NCI-H226 lung) was over 100 µM and the TGI (HCT-116 colon) was over 100 µM. It also gave a TGI (SW-620 colon) of over 100 µM, a TGI (SK-MEL-28 melanoma) of over 100 µM and a TGI (SF-295 CNS) of over 100 µM. For the same compound, the TGI (KM12 colon) was over 100 µM, the TGI (MALME-3M melanoma) was over 100 µM and the TGI (OVCAR-3 ovarian) was over 100 µM. For the same compound, the TGI (CCRF-CEM leukemia) was over 100 µM, the TGI (U251 CNS) was over 100 µM and the TGI (SR leukemia) was over 100 µM. The TGI (EKVX NSCLC) was over 100 µM, the TGI (HOP-62 NSCLC) was over 100 µM and the TGI (SF-268 CNS) was over 100 µM. The TGI (MOLT-4 leukemia) was over 100 µM, the TGI (DU-145 prostate) was over 100 µM and the TGI (RXF 393 renal) was over 100 µM. For the same compound, the TGI (M14 melanoma) was over 100 µM, the TGI (786-0 renal) was over 100 µM and the TGI (IGROV1 ovarian) was over 100 µM. For the same compound, the TGI (TK-10 renal) was over 100 µM, the TGI (ACHN renal) was over 100 µM and the TGI (SN12C renal) was over 100 µM. It also gave a TGI (MDA-N) of over 100 µM, a TGI (NCI-H460 lung) of over 100 µM and a TGI (RPMI-8226 leukemia) of over 100 µM.

For `Cc1ccc(C)c(NC(=O)C(=O)C2C(=O)C3=C(CC2(C)C)Nc2ccccc2S3)c1` (stereo unspecified), the TGI (NCI/ADR-RES ovarian) was over 100 µM, the TGI (OVCAR-8 ovarian) was over 100 µM and the TGI (MCF7 breast) was over 100 µM. It also gave a TGI (A549 NSCLC) of over 100 µM, a TGI (SNB-19 CNS) of over 100 µM and a TGI (NCI-H23 lung) of over 100 µM. For the same compound, the TGI (PC-3 prostate) was over 100 µM, the TGI (UACC-257 melanoma) was over 100 µM and the TGI (OVCAR-5 ovarian) was over 100 µM. For the same compound, the TGI (HOP-92 NSCLC) was over 100 µM, the TGI (OVCAR-4 ovarian) was over 100 µM and the TGI (SF-539 CNS) was over 100 µM. It also gave a TGI (SK-MEL-2 melanoma) of over 100 µM, a TGI (UACC-62 melanoma) of over 100 µM and a TGI (SNB-75 CNS) of over 100 µM. The TGI (HT29 colon) was over 100 µM, the TGI (SK-OV-3 ovarian) was over 100 µM and the TGI (UO-31 renal) was over 100 µM. It also gave a TGI (COLO 205 colon) of over 100 µM, a TGI (BT-549 breast) of over 100 µM and a TGI (MDA-MB-435) of over 100 µM. For the same compound, the TGI (NCI-H522 lung) was over 100 µM, the TGI (CAKI-1 renal) was over 100 µM and the TGI (HCC-2998 colon) was over 100 µM. It also gave a TGI (HCT-15 colon) of over 100 µM, a TGI (HL-60(TB) leukemia) of over 100 µM and a TGI (NCI-H226 lung) of over 100 µM. The TGI (MDA-MB-231 breast) was over 100 µM, the TGI (HCT-116 colon) was over 100 µM and the TGI (SW-620 colon) was over 100 µM. It also gave a TGI (SK-MEL-28 melanoma) of over 100 µM, a TGI (SK-MEL-5 melanoma) of over 100 µM and a TGI (SF-295 CNS) of over 100 µM. For the same compound, the TGI (KM12 colon) was over 100 µM, the TGI (OVCAR-3 ovarian) was over 100 µM and the TGI (CCRF-CEM leukemia) was over 100 µM. For the same compound, the TGI (U251 CNS) was over 100 µM, the TGI (EKVX NSCLC) was over 100 µM and the TGI (HOP-62 NSCLC) was over 100 µM. For the same compound, the TGI (HS 578T breast) was over 100 µM, the TGI (SF-268 CNS) was over 100 µM and the TGI (MOLT-4 leukemia) was over 100 µM. It also gave a TGI (DU-145 prostate) of over 100 µM, a TGI (RXF 393 renal) of over 100 µM and a TGI (M14 melanoma) of over 100 µM. For the same compound, the TGI (786-0 renal) was over 100 µM, the TGI (LOX IMVI melanoma) was over 100 µM and the TGI (IGROV1 ovarian) was over 100 µM. The TGI (TK-10 renal) was over 100 µM, the TGI (ACHN renal) was over 100 µM and the TGI (SN12C renal) was over 100 µM. It also gave a TGI (MDA-N) of over 100 µM and a TGI (NCI-H460 lung) of over 100 µM.
